Test results as given in ChEMBL document CHEMBL1143292, “A small molecule inhibitor selective for a variant ATP-binding site of the chaperonin GroEL” (Bioorg Med Chem Lett, 2009).
Calls of active or inactive are those of the source.

Key:
[1] = test system: Escherichia coli; assay: (§1) Inhibition of Escherichia coli 60 kDa chaperonin groEL refolding activity assessed as recovered enzyme activity of bovine rhodanese at 50 uM
[2] = test system: Chaperonin GroEL (Escherichia coli (strain K12)), P0A6F5 [I493C]; assay: as §1
[3] = test system: Escherichia coli; assay: Inhibition of Escherichia coli 60 kDa chaperonin groEL ATPase activity assessed as inorganic phosphate release at 50 uM by Malachite green complex formation assay
[4] = test system: Escherichia coli; assay: (§2) Inhibition of Escherichia coli 60 kDa chaperonin groEL refolding activity assessed as recovered enzyme activity of pig heart malate dehydrogenase at 50 uM
[5] = test system: Chaperonin GroEL (Escherichia coli (strain K12)), P0A6F5 [I493C]; assay: as §2
[6] = test system: Chaperonin GroEL (Escherichia coli (strain K12)), P0A6F5 [I493C]; assay: Inhibition of Escherichia coli 60 kDa chaperonin groEL I493C mutant
[7] = test system: Chaperonin GroEL (Escherichia coli (strain K12)), P0A6F5 [I493C]; assay: Inhibition of Escherichia coli 60 kDa chaperonin groEL I493C mutant ATPase activity assessed as inorganic phosphate release at 50 uM by Malachite green complex formation assay

Measured: Activity

Sequence of Chaperonin GroEL (Escherichia coli (strain K12)), P0A6F5 [I493C] (P0A6F5 whole entry I493C): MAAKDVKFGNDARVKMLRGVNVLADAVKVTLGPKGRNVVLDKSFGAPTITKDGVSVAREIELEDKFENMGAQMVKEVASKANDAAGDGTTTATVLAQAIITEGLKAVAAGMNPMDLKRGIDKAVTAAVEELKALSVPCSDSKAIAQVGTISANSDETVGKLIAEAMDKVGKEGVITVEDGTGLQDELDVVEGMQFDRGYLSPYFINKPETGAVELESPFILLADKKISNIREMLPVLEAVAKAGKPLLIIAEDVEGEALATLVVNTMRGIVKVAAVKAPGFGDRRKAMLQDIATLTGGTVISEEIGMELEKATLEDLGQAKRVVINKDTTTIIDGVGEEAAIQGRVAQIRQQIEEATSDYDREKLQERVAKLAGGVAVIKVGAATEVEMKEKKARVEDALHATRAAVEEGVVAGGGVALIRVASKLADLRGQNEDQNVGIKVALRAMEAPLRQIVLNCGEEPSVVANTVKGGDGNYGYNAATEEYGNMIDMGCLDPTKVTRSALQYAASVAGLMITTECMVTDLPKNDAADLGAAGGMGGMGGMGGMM

CC(C)(C)n1nc(-c2ccc(NC(=O)C3CCCC3)cc2)c2c(N)ncnc21
active: all assays above
